The source of these data is ChEMBL document CHEMBL5728884, “Kinase inhibitors and uses thereof” (2021).

For this experiment, the target named is T1, Receptor-interacting serine/threonine-protein kinase 1 (Homo sapiens, UniProt Q13546).
T1 sequence (Q13546 whole entry): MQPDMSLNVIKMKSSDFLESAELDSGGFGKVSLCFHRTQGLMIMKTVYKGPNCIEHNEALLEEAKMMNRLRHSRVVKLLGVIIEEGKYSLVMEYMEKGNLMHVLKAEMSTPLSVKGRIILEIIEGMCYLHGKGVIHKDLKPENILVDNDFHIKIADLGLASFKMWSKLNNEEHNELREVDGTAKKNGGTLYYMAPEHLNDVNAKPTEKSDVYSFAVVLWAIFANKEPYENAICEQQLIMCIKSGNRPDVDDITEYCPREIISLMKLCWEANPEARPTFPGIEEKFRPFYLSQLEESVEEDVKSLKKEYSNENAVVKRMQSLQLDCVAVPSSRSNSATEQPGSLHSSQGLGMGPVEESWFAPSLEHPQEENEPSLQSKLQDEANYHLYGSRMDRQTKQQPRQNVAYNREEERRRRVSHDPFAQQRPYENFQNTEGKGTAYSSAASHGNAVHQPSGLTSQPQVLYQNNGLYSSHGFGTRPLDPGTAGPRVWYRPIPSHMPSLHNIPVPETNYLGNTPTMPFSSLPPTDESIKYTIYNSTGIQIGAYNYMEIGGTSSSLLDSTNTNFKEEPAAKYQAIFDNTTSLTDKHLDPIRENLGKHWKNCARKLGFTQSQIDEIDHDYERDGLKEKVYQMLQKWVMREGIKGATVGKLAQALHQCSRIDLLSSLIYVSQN
The experiment can be described thus: Fluorescent Polarization Binding (FP Binding) Assay: Test compounds were serially diluted in DMSO at 100 fold final concentrations in the assay (1% DMSO final). In each well of a 384-well Plate were dispensed 0.1 μL of compound solution (or DMSO for controls) followed by 5 μL of GST-hRIPK1 (8-327) at twice the final concentrations in assay buffer (50 mM HEPES pH 7.5, 10 mM NaCl, 50 mM MgCl2, 0.02% CHAPS, 0.5 mM DTT and 0.01% Pluronic F127). For negative control the enzyme addition was replaced by assay buffer only.After addition of 5 μL of fluorescentlabeled ligand at twice the final concentrations in assay buffer, the plate was incubated at RT for […]. At the end, the binding was measured as FP value with the Envision (PerkinElmer) plate reader using filter for an excitation λ=531 nm FP and an emission λ=595 nm FP (S & P-pol). GST-hRIPK1 (8-327) enzyme was produced via Baculovirus expression.

In the case of `Cc1nc(N2CCC(F)(C(=O)N3CCOc4c(C#N)cncc4C3)CC2)ncc1F`, the half-maximal inhibitory concentration (IC50) is below 100 nM.

In turn, `CC1(C(=O)N2CCOc3ccncc3C2)CCN(c2ncc(F)cn2)CC1(F)F` (configuration not stated) gave an IC50 below 100 nM.

In general, IC50 refers to the concentration that inhibits the measured activity by half.
